From US20190049456A1, “METHOD FOR DETECTING OR SEPARATING/OBTAINING CIRCULATING TUMOR CELL EMPLOYING CELL PROLIFERATION METHOD” (priority 2016, published 2019)

Tested on: circulating tumor cell (CTC)
Assay: CTC obtainment test (CTCs-inducing ability / CTC yield efficiency) by culture of patient PBMCs in test culture media
Type: cell-based, human
Conditions: additive component study
Procedure: Examples of the present invention followed experimental methods given below. Specifically, all experimental samples (peripheral blood from various cancer patients who donated blood) were aseptically treated by procedures given below. In the case where infections by various viruses such as HBV and HCV were found in advance according to information from each cooperating facility, the treatment thereof was tested aside from a non-infected group and proper medical waste treatment was carried out by medical waste treatment professionals. 1. A disposable 30 ml syringe for blood collection containing an appropriate amount of an anticoagulant heparin sodium (0.05 ml) was provided, and a disposable 30 ml blood collection syringe for serum procurement containing no heparin sodium was also provided. These syringes were respectively connected to insertion ports of L-type 180° three-way stopcock, while an appropriate 18-, 21- or 24-gauge butterfly needle was connected to the vascular vessel side to prepare for blood collection. 30 ml of blood per each sample was collected, and the following separation operation was carried out. 2. For serum collection, the blood collection syringe barrel with a needle put thereon was placed at 37° C. for 1 hour in a 5% CO2 incubator, followed by centrifugation at 3,000 rpm (800 G) at 4° C. for 30 minutes. […]

Substance: lipopolysaccharide [LPS]
- CTC-inducing effect: slightly observed
